Source: paper PMC9138545, “Incorporation of Oxidized Phenylalanine Derivatives into Insulin Signaling Relevant Proteins May Link Oxidative Stress to Signaling Conditions Underlying Chronic Insulin Resistance” (Biomedicines, 2022)
Entries after “also recorded” stand apart in the source; their conditions may differ.

Tests used:
p-IRS-1 in podocytes = test: Immunofluorescence of p-IRS-1 in insulin-treated podocytes; type: cell-based, human; details: 400 nmol/l insulin for 10 min
Experimental: (§1) The conditionally immortalized human podocyte cell line (provided by Moin Saleem, University of Bristol, UK) was cultured in RPMI1640 medium (R8756, Sigma Aldrich, Budapest, Hungary) supplemented with 10% heat-inactivated FBS (16170-078, Gibco, Budapest, Hungary), insulin-transferrin-selenium supplement (41400-045, Gibco), 100 U/mL penicillin, 0.1 mg/mL streptomycin (P4333, Sigma), and […] (equimolar to the original p-Tyr content of the medium) para-, meta-, or ortho-Tyr. The cells were grown at 33 °C 5% CO2, and when they reached 40–60% confluency they were transferred to 37 °C to differentiate. Following the thermoswitching, cells were kept on RPMI1640 medium containing 2% FBS, antibiotics, and different tyrosines. Before every treatment, cells were incubated in serum-deprived medium overnight.
(§2) In a 6-well plate, 104 cells were cultured on glass coverslips washed with alcohol and dried under UV light. The podocyte cells were grown in RPMI1640 medium supplemented with 10% heat-inactivated FBS at 33 °C, 5% CO2. When they reached 60% confluence, the medium was changed to RPMI1640 medium containing 2% FBS and 112.05 nM of the different tyrosine isoforms, then the plates were transferred to 37 °C, 5% CO2 to allow the cells to differentiate. The different tyrosine isoforms were added to the maintenance medium. The cells were serum deprived overnight, then incubated with 400 nmol/l insulin for 10 min. After removal of the medium, the coverslips were washed twice with PBS. The cells were fixed at room temperature in 2% paraformaldehyde and 4% sucrose for 8 min, then permeabilized using 0.3% Trion X-100 in 1xPBS for 20 min and blocked in 2.5% BSA for 45 min [45]. The primary antibody was diluted in 1xPBS, and the cells were incubated in it for 60 min in humid conditions. The antibodies we used were mouse anti-WT1 antibody (H-1) (1:100, Santa Cruz Biotechnology, Dallas, TX, USA), chicken anti-vimentin antibody (1:100, Abcam), rabbit anti-glucose transporter GLUT4 antibody (1:100, Abcam, Cambridge, UK), mouse Insulin Receptor Substrate-1 antibody (1:100, Invitrogen, Waltham, MA, USA), and rabbit anti-phospho-Insulin Receptor Substrate-1 (pTyr612) antibody (1:10, Sigma). Coverslips were washed in PBS three times for 5 min in PBS and incubated in the fluorophore-conjugated secondary antibodies anti-goat, anti-chicken, secondary antibody Alexa fluor 647, anti-rabbit Alexa fluor 350, and anti-mouse Alexa Fluor 488 (1:10, Invitrogen) for 60 min. Samples were then washed in PBS three times for 5 min and mounted in Vectashield (Vector Laboratories). Images were taken with a Nikon Eclipse Ti2 microscope.

3T3-L1 adipocytes [1] = test: Isotope glucose uptake (deoxy-D-glucose 2-[1 2-3H(N)]) in differentiated 3T3-L1 adipocytes; type: cell-based, mouse
Experimental: (§3) Early passages of mouse embryo fibroblast (3T3-L1) (ATCC, Manassas, VA, US) were cultured in Dulbecco’s modified Eagle medium (DMEM, Sigma Aldrich, Budapest, Hungary, CAT number: D6046; Invitrogen, Waltham, MA, USA, CAT number: 41966-029) supplemented with 100 U/mL penicillin, 0.1 mg/mL streptomycin (Gibco, Budapest, Hungary, CAT number: 15070-063) and 10% heat-inactivated Fetal Bovine Serum (FBS, Gibco, CAT number: 16170-078), supplemented with 398 nM p-, m-, or o-Tyr (equimolar to the original p-Tyr content of the medium) purchased from Sigma (CAT number: para-Tyr: T8566, m-Tyr: T3629, o-Tyr: 93851). Media contained 25 or 5 mmol/L glucose (experiment dependent) pyruvate and L-glutamine. Cells were grown at 37 °C and 5% CO2. Adipocyte differentiation was achieved by DMEM supplemented with 10% FBS (Gibco, Csertex, Budapest, Hungary, CAT number: 10106-169) (FBS) and a […] insulin (Sigma Aldrich, Budapest, Hungary, CAT number: I 9278), […] isobuthylmethylxanthine (Sigma Aldrich, Budapest, Hungary, CAT number: I 5879), and 250 nmol/L dexamethasone (Sigma Aldrich, Budapest, Hungary, CAT number: 861871) containing cocktail. From day 4 onward, cultures were maintained in DMEM containing 1.5 μg/mL insulin and 10% FBS with a medium change every other day until experimental treatments were started. After 90% of the cell population reached the adipocyte phenotype, prior to all treatments, cells were incubated overnight in serum-deprived medium. Experimental treatment was performed in serum-deprived medium containing 200 or 400 nmol/L insulin, for 5 min.
Initially, cells were kept in glucose-free DMEM (Gibco, Csertex, Budapest, Hungary) for 30 min and then were treated with 2, 20, 200, or 400 nmol/L insulin for 100 min. Concurrently, 1 μCi/mL deoxy-D-glucose 2-[1 2-3H(N)] (3.7 × 104 Bq/mL) (Izotóp Intézet, Budapest, Hungary) was added to the plates for 100 min. After scraping the cells into the medium, they were centrifuged for 5 min at 1000 rpm. We dissolved the sediment in 70 μL of lysis buffer, then glucose uptake was determined by scintillation counting by measuring 30 μL of the sample, using a Beckman LS 5000 TD counter, in counts per minute (CPM), for five minutes each, with average activity was used as the outcome. Following freezing overnight at −70 °C, protein concentration was measured with a Hitachi spectrophotometer. Results were normalized for protein content.

[2] = system: GLUT4 and vimentin in podocytes; test: Immunofluorescence of GLUT4 and vimentin in insulin-treated podocytes; type: cell-based, human; details: 400 nmol/l insulin for 10 min
Experimental: as §1, §2

3T3-L1 adipocytes [3] = test: HPLC of non-protein-bound intracellular tyrosines; type: cell-based, mouse; details: 5 or 25 mmol/L glucose, with or without 400 nmol/L insulin
Experimental: as §3
To measure the total intracellular non-protein-bound tyrosine concentration, prior to the freezing of samples overnight at −70 °C to achieve cell lysis, 200 μL distilled water was added to each. After melting up, samples were centrifuged for 15 min at 15,000 rpm. A total of 200 µL of the supernatant was mixed with 200 µL of 60% trichloroacetic acid. After 30 min incubation on ice, samples were centrifuged again at 15,000 rpm for 15 min. Then, the supernatant was filtered and was diluted 5-fold and then 160 µL distilled water was added to 40 µL of filtrate, followed by the injection of the mixture onto the HPLC column.
The amounts of p-, o-, m-Tyr and Phe in the samples were determined by measuring their autofluorescence. Thus, no derivatization or staining was needed. Samples were measured on a Shimadzu Class 10 HPLC system equipped with an RF-10 AXL fluorescent detector (Shimadzu USA Manufacturing Inc., Canby, OR, USA). The mobile phase consisted of 1% sodium acetate and 1% acetic acid dissolved in water. The separation took place on a LiChroCHART 250-4 column (Merck KGaA, Darmstadt 64271, Germany) in an isocratic run. Wavelengths of 275 nm for excitation and 305 nm for emission were used to assess p-, o- and m-Tyr, while Phe was detected at 258 nm excitation and 288 nm emission wavelengths. Determination of the area under the curve (AUC) plus external standard calibration was used to calculate the precise concentrations of the amino acids.

[4] = system: IR kinase (989–1382, fused to GST); test: IR kinase phosphorylation assay, capillary electrophoresis; type: biochemical; details: 200 μM peptide, 875 nM IR kinase, 1 mM ATP, 5 mM MgCl2, pH 7.5
Experimental: Enzymatically active IR kinase (989–1382, fused to GST and produced in SF9 cells) was ordered from SinoBiological (catalog number 11081-H20B1). The stock solution was aliquoted and frozen separately to preserve activity. Prior to comparative measurements, the activity of recombinant IR kinase was tested on internal control peptides and found to be suitable for kinase assays.
The kinase assay mixture contained 200 μM peptide (GRKGSGDYMPMSPKV) and 875 nM IR kinase in kinase buffer (20 mM potassium phosphate (monobasic), 15 mM sodium phosphate (dibasic), 103 mM NaCl, 5 mM MgCl2, 5% glycerol, 0.05% Igepal; pH 7.5). The reaction was initialized by addition of 1 mM ATP. The phosphatase reaction mixture contained 80 μM peptide (GRKGSGD(phosphoY)MPMSPKV) in buffer (50 mM TRIS, 150 mM NaCl, 1 mM EDTA and 2 mM DTT; pH 7.4). The reaction was initialized by addition of 25 nM PTP1B enzyme. Equal aliquots of the kinase or the phosphatase reaction mixture were subjected to capillary electrophoresis analysis at the indicated time points after the start the reaction.
Background electrolyte (BGE) components phosphoric acid and triethylamine were purchased from Sigma (St. Louis, MO, USA) and from Merck GmbH (Darmstadt, Germany), respectively. Capillary electrophoresis was performed with an Agilent Capillary Electrophoresis 3DCE system (Agilent Technologies, Waldbronn, Germany) applying DB-WAX coated capillary having a 33.5 cm total and 25 cm effective length with 50 μm I.D. (Agilent Technologies, Santa Clara, CA, USA). On-line absorption at 200 nm was monitored by DAD UV-Vis detector. The capillary was thermostated at 25 °C. Before measurements, the capillary was rinsed subsequently with distilled water for 15 min and between measurements with BGE (100 mM trimethylamine-phosphate buffer; pH 2.5) for 3 min. Samples were injected by 5 × 10^3 Pa pressure for 6 s. Runs were performed in the positive-polarity mode with 20 kV.

Akt (Ser473) = test: Western blot, activating phosphorylation of Akt (Ser473); type: cell-based; details: 400 nmol/L insulin; adipocytes, HEK cells, podocytes, macrophages; n = 4–8
Experimental: as §3, §1
(§4) HEK-293 immortalized cell line (ATCC, Manassas, VA, USA) of epithelial morphology and the J774A.1 mouse BALB/C monocyte-macrophage cell lines (91051511-1VL, Sigma Aldrich, Budapest, Hungary) were cultured in Petri dishes with a medium composed of Dulbecco’s modified Eagle’s medium (DMEM, Sigma Aldrich, Budapest, Hungary, CAT number: D6046, Invitrogen, CAT number: 41966-029), with a 10% heat-inactivated FBS supplementation (16170-078, Gibco), insulin-transferrin-selenium supplement (41400-045, Gibco, Budapest, Hungary,), 100 U/mL penicillin and 0.1 mg/mL streptomycin (P4333, Sigma) and 398 nM para (5 and 25 mmol/L), meta-, or ortho-Tyr (T8566, T3629, 93851, Sigma). Before treatment, cells were incubated in serum-deprived medium overnight as well. […]
(§5) The samples of lysates were vortexed and centrifuged (10 min, 13,000 rpm, at 4 °C). Protein content of the samples was determined by the Lowry method using bovine serum albumin as a standard. […]

IRS-1 (Tyr612) = test: Western blot, activating phosphorylation of IRS-1 (Tyr612); type: cell-based; details: 400 nmol/L insulin; adipocytes, HEK cells, podocytes, macrophages; n = 4–8
Experimental: as §3, §1, §4, §5

## N[C@@H](Cc1ccc(O)cc1)C(=O)O [p-Tyr, para-tyrosine, reference compound]
p-IRS-1 in podocytes
  membrane translocation of IRS-1 / p-IRS-1: clearly demonstrated; also recorded: located in the membrane
p-IRS-1 in podocytes; vs. p-Tyr
  p-IRS-1 intensity: more intense
3T3-L1 adipocytes [1]; increasing p-Tyr concentrations, with or without 400 nmol/L insulin, n = 10
  reversal of inhibitory effect of o- and m-Tyr on glucose uptake: ameliorated by increasing concentrations of p-Tyr
[2]
  GLUT4 membrane localization: characteristic localization of GLUT-4 positivity; also recorded: GLUT4 aggregates are transported to the membrane
3T3-L1 adipocytes [3]
  cellular uptake of amino acids (non-protein-bound intracellular content): continuous uptake of amino acids which was independent of glucose concentration (5 or 25 mmol/L) and the presence of insulin

## GRKGSGDF(2-hydroxy)MPMSPKV [o-tyrosine containing peptides, unphosphorylated ortho-tyrosine IRS-1 YXXM motif peptide]
[4]
  phosphorylation by IR kinase: neither o- nor m-tyrosine containing peptides are substrates for the IR kinase
[4]; listed as ortho-tyrosine peptides
  phosphorylation by IR kinase: very poor substrates

## GRKGSGDF(3-hydroxy)MPMSPKV [m-tyrosine containing peptides, unphosphorylated meta-tyrosine IRS-1 YXXM motif peptide]
[4]
  phosphorylation by IR kinase: neither o- nor m-tyrosine containing peptides are substrates for the IR kinase
[4]; listed as meta-tyrosine peptides
  phosphorylation by IR kinase: very poor substrates

## GRKGSGDF(4-hydroxy)MPMSPKV [p-Tyr containing “natural” peptide, unphosphorylated para-tyrosine IRS-1 YXXM motif peptide]
[4]
  phosphorylation by IR kinase: efficiently phosphorylated

## insulin: insulin (Sigma Aldrich, I 9278)
Akt (Ser473)
  insulin-induced Akt phosphorylation: approximately two-fold
IRS-1 (Tyr612)
  insulin-induced IRS-1 phosphorylation: approximately two-fold
3T3-L1 adipocytes [1]; 200 nmol/L insulin, cells grown 1, 2, 3, 4, 5 or 12 days with p-, m- or o-Tyr, n = 5–8
  insulin-induced glucose uptake, time dependence: approximately two-fold
3T3-L1 adipocytes [1]; 2, 20, 200, 400 nmol/L insulin, 5 mmol/L glucose, medium with p-, m- or o-Tyr
  insulin-induced glucose uptake, 5 mmol/L glucose: marked increase in glucose uptake in 5 mmol/L glucose
